According to patent US12465594B2 (Brown University, priority 2018, dated 2025):

Tests used:
D1 = target: T1, D1 (Homo sapiens, UniProt P21728); experiment: PDSP binding assay; settings: 10 μM, quadruplicate, cloned target
T1 construct: NIMH Psychoactive Drug Screening Program (PDSP)

D2 = target: T2, D2 (Homo sapiens, UniProt P14416); experiment: PDSP binding assay; settings: 10 μM, quadruplicate, cloned target
T2 construct: NIMH Psychoactive Drug Screening Program (PDSP)

[1] = test system: NMDAR EPSCs in VTA dopamine neurons; experiment: Electrophysiology: CRF potentiation of NMDAR EPSCs in VTA slices; format: cell-based, mouse; settings: 30 μM compound, CRF 1 μM, VTA-DA neurons, acute brain slices
Excerpt: Male and female mice (n=44; 6-10 weeks) were anesthetized with Euthasol (Butler-Schein). Brains were rapidly removed and placed in ice-cold NMDG-based artificial Cerebrospinal Fluid (aCSF) cutting solution containing (in mM): 92 NMDG, 20 HEPES, 25 glucose, 30 NaHCO3, 2.5 KCl, 1.2 NaPO4 saturated with 95% O2/5% CO2 with an osmolarity of 305-308 mOsm (Advanced Cell Diagnostics). The brain was cut in ice-cold NMDG solution to obtain horizontal VTA slices, 230 μm thick, using a Leica vibratome (Leica VT1200) and slices were incubated in warm NMDG solution (34° C.) for <5 minutes before being placed in a modified aCSF holding solution (in mM): 92 NaCl, 20 HEPES, 25 glucose, 30 NaHCO3, 2.5 KCl, 1.2 NaPO4 (305-308 mOsm). Slices were incubated at room temperature for at least 1 hour before recording.
Whole-cell patch clamp of the lateral VTA was performed under the guidance of IR-DIC optics on an Olympus BX5iWI microscope. Cells were patched with 1.8-3 MO resistance glass microelectrodes containing the following internal solution (in mM): 117 cesium methanesulfonate, 20 HEPES, 0.4 EGTA, 2.8 NaCl, 5 TEA-CI, 4 Mg-ATP, 0.4 Na-GTP, and 5 QX-314 (280-285 mOsm). Dopamine cells were identified by the following criteria: 1) large multipolar soma, 30-40 μm in diameter, 2) tonic firing of <4 Hz when cell attached, 3) large […] with negative voltage step (identified immediately following break in). […] Series resistance was monitored online. […]
For electrophysiology measures, excitatory post-synaptic currents (EPSCs) were normalized to 7 minute of averaged baseline responses, prior to drug application. […] Results are reported as M±SEM a in bar graphs comparing drug to vehicle and analyzed by a one-way ANOVA and post-hoc comparisons to vehicle were performed using a Bonferroni multiple comparisons correction measures (**p<0.01). […]
NMDAR excitatory postsynaptic currents (EPSCs) were recorded from VTA dopamine (DA) neurons in acute brain slices from male and female mice. […]

NET = NET (Homo sapiens, UniProt P23975); experiment: PDSP binding assay; settings: 10 μM, quadruplicate, cloned target
Sequence of NET (P23975 whole entry): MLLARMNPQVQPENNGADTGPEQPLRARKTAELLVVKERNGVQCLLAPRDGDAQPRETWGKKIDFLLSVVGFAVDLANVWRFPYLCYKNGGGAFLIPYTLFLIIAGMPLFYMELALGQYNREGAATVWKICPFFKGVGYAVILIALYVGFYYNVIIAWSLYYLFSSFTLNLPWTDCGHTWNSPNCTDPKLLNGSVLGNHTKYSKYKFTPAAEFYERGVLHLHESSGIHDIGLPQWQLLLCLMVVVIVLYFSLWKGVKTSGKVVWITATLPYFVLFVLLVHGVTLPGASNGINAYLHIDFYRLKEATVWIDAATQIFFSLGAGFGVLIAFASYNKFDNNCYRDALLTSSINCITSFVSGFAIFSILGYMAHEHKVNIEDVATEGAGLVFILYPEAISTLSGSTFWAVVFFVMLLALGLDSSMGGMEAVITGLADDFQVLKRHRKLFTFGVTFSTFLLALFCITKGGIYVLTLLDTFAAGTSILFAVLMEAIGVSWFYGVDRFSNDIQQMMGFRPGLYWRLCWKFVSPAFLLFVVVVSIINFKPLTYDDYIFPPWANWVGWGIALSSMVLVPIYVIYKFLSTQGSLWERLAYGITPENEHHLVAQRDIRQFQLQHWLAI

5-HT5A = target: T3, 5-HT5A (Homo sapiens, UniProt P47898); experiment: PDSP binding assay; settings: 10 μM, quadruplicate, cloned target
T3 construct: NIMH Psychoactive Drug Screening Program (PDSP)
T3 sequence (P47898 whole entry, species assumed): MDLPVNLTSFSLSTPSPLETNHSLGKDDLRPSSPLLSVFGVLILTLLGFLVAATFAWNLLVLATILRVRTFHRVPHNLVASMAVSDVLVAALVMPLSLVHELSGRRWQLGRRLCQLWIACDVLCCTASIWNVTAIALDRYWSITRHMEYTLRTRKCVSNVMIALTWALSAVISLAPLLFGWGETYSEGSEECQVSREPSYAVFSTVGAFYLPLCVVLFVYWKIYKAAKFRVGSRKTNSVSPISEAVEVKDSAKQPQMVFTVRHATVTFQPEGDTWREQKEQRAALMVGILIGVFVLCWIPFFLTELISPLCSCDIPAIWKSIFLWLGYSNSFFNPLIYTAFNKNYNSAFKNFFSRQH

M2 = M2 (Homo sapiens, UniProt P08172); experiment: PDSP binding assay; settings: 10 μM, quadruplicate, cloned target
Sequence of M2 (P08172 whole entry): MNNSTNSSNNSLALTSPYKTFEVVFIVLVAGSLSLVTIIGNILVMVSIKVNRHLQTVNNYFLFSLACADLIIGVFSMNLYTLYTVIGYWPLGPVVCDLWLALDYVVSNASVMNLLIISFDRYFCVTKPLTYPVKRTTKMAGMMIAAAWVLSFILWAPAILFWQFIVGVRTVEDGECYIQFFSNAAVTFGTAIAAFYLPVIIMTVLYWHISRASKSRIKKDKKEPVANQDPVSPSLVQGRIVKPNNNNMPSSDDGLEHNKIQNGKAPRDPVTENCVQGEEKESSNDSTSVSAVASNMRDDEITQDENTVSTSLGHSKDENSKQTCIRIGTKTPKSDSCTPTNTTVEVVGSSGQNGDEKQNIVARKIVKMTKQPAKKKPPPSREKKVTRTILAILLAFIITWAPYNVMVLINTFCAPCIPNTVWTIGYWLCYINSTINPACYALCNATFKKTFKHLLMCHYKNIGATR

MOR = MOR (Homo sapiens, UniProt P35372); experiment: PDSP binding assay; settings: 10 μM, quadruplicate, cloned target
Sequence of MOR (P35372 whole entry): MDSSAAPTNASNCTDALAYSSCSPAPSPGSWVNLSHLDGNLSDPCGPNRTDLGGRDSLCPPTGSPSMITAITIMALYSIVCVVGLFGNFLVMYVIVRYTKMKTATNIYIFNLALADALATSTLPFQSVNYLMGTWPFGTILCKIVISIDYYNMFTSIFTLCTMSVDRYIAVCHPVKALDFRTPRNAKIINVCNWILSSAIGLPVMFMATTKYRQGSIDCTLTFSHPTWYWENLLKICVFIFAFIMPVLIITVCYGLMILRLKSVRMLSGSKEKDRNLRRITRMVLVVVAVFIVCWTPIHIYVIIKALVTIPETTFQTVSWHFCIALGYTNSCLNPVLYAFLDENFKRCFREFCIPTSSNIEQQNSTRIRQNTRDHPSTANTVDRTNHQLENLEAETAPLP

M1 = M1 (Homo sapiens, UniProt P11229); experiment: PDSP binding assay; settings: 10 μM, quadruplicate, cloned target
Sequence of M1 (P11229 whole entry): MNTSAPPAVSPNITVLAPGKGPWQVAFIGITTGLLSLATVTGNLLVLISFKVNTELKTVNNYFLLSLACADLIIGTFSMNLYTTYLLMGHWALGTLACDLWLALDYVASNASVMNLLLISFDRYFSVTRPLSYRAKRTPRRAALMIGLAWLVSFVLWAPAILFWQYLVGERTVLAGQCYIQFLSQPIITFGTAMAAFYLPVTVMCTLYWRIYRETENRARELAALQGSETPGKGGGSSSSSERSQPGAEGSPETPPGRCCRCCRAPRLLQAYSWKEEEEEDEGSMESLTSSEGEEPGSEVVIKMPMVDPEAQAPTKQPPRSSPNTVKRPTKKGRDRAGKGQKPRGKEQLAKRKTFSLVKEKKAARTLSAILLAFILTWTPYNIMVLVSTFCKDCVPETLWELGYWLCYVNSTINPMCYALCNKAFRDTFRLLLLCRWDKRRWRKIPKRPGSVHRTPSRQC

T1 sequence (P21728 whole entry): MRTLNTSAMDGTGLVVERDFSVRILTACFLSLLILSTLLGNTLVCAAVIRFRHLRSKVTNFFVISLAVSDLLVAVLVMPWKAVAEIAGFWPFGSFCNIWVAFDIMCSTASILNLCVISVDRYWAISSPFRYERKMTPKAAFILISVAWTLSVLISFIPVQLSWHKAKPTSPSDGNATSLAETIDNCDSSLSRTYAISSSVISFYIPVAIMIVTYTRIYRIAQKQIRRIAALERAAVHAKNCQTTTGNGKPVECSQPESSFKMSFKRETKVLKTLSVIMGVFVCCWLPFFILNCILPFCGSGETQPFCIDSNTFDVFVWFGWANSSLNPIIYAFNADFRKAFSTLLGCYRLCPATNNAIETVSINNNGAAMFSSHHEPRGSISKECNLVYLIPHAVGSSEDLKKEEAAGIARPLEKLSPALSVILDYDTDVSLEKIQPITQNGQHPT
T2 sequence (P14416 whole entry): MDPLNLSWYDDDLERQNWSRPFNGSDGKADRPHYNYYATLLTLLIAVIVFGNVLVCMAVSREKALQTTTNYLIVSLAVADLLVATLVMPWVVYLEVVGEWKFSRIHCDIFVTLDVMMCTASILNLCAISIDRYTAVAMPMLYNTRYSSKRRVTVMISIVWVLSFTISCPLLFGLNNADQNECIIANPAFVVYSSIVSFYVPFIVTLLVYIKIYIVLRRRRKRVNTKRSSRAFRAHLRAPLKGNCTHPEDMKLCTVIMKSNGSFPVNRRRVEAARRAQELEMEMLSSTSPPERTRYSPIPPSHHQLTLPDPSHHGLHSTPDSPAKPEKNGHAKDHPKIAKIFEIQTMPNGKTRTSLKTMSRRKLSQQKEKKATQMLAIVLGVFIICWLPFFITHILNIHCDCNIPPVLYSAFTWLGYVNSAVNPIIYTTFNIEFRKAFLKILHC

Row | SMILES | Activity at D1 (binding assay) (D1) [%] | Activity at D2 (binding assay) (D2) [%] | Block of CRF potentiation of NMDAR EPSCs [1] | Activity at NET (binding assay) (NET) [%] | Activity at 5-HT5A (binding assay) (5-HT5A) [%] | Activity at M2 (binding assay) (M2) [%] | Activity at MOR (binding assay) (MOR) [%] | Activity at M1 (binding assay) (M1) [%]
1 | Brc1ccccc1-c1nnc(CSc2nnnn2-c2ccccc2)o1 [MLS-0046818] | −1 | −13 | sufficient to block the CRF effect | 8 | −1 | 10 | 12 | −15
2 | CC(C)Cn1c(SCC(=O)N2CCc3ccccc3C2)nc2cc(Cl)ccc2c1=O [MLS-0219419] | 1 | −5 | sufficient to block the CRF effect | 12 | 12 | 23 | −4 | −15
